The source of these data is ChEMBL document CHEMBL1125667, “Receptor-based design of novel dihydrofolate reductase inhibitors: benzimidazole and indole derivatives” (J Med Chem, 1991).

Experiment [1] addresses T1, Dihydrofolate reductase (Escherichia coli) (UniProt P0ABQ4).
T1 sequence (whole entry): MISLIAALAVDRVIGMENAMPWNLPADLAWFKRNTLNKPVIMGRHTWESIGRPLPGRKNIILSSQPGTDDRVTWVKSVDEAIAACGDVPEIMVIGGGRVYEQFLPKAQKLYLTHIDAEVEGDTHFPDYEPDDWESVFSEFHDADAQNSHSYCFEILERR
Put plainly: (§1) Inhibitory activity against Dihydrofolate reductase obtained from Escherichia coli.

Experiment [2] concerns the target T2, Dihydrofolate reductase (Rattus norvegicus) (UniProt Q920D2).
T2 sequence (whole entry): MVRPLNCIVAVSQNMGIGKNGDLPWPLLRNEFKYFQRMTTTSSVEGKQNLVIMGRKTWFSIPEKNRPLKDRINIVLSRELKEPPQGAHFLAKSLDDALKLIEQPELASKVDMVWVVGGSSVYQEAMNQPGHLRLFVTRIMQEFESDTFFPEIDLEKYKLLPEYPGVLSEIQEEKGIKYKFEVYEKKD
Briefly: Inhibitory activity against Dihydrofolate reductase obtained from rat liver.

The next experiment addresses T3, Dihydrofolate reductase (Escherichia coli, UniProt P0ABQ4).
T3 sequence (P0ABQ4 whole entry): T1 sequence (whole entry)
Described as §1. The settings on record: read-out: I50.

Consider `Nc1nc2c(N)c3c(cc2[nH]1)CCC3`, for which, in experiment [1], the I13 is 360 µM. Further, the I7 in experiment [2] is 360 µM.

Regarding `Nc1nc2c(N)cc(C(=O)c3ccccc3)cc2[nH]1`, the I14 in experiment [1] amounted to 100 µM. The I16 in experiment [2] amounted to 100 µM.

In experiment [1], `Nc1nc2c(N)c3c(cc2[nH]1)C1(CC3)SCCS1` displayed an I31 of 140 µM. In addition, the I14 in experiment [2] is 14 µM.

As to `Nc1nc2c(N)cc(Cc3ccccc3)cc2[nH]1`, the I42 in experiment [1] is 300 µM. The compound further displayed an I5 in experiment [2] of 300 µM.

For the compound `Nc1cc2c(N)cc(Cc3ccccc3)cc2[nH]1`, the I28 in experiment [2] stood at 500 µM. The IC50 on Dihydrofolate reductase was 100 µM.
